Assay results from patent US7795380B2, “Compositions and methods for nucleic acid delivery” (University of Iowa Research Foundation, priority 2006, dated 2010).
Where no end group is shown, it is not given here. photolabel = not defined here

How the values were obtained:
[1] = system: erythrocytes; conditions: cited from earlier work
[2] = stability of the linker peptide by LC/MS; assay type: physicochemical
Description: To test the hypothesis that the new linker would be stable under normal operating conditions, the linker was first synthesized via solid phase peptide synthesis and then purified by preparative reverse phase HPLC. Characterization and purity of the linker was accomplished through analytical reverse phase HPLC and LC/MS (FIG. 11). The stability of the linker peptide was determined by LC/MS after exposure to a variety of conditions including incubations at room temperature, 37° C., 50° C., and exposure to sunlight.
However, this is not surprising since PL-L1 peptide is a photoactive compound and should photoactivate if provided the proper stimulus.

H5WYG: cationic peptide from HA-2 with His in place of Glu (GGLFHAIAAHFIHGGWHGLIHGWWG)
hemolysis activity ([1]; pH 6.4): full hemolytic activity

PL-Tyr-Lys-Lys-Lys (photolabel-YKKK; reading uncertain; also: printed as PL-Tyr-Lys-Lys-Lys) [PL-L1]
stability by LC/MS ([2]; exposure to sunlight): moderate degradation | stability by LC/MS ([2]; room temperature, 37° C., 50° C.): stable

JTS-1: amphipathic acidic fusogenic peptide developed by Gottschalk and coworkers (GGLFEALLELLESLWELLLEA)
higher hemolysis activity than INF-7 ([1]; pH of 5): 8 fold
